Results: US9199862B2, “Method for adsorbing fluorocarboxylic acid having ether bond and method for collecting same” (DAIKIN INDUSTRIES, LTD., priority 2009, dated 2015)

Experiments:
[1] = normal temperature; cited from earlier work
[2] = adsorption and desorption by heating the active carbon in a dryer at 99° C. (Example 3); assay type: physicochemical; conditions: Tables 3 and 4, 99° C. for 48 hours
Method: An active carbon (Specific surface area: 500-2,000 m^2/g) (0.1 g), to which 2,3,3,3-tetrafluoro-2-[1,1,2,3,3,3-hexafluoro-2-(trifluoromethoxy)propoxy]-propanoic acid was adsorbed until reaching the breakthrough point, was charged into a dryer and left at a temperature of 99° C. for 48 hours. The desorption amount was taken as the same as an adsorption amount in adsorption again after the desorption.

solubility in water = assay type: physicochemical; conditions: normal temperature
Description: A fluorocarboxylic acid having an ether bond, for example, 2,3,3,3-tetrafluoro-2-[1,1,2,3,3,3-hexafluoro-2-(trifluoromethoxy)propoxy]-propanoic acid has a solubility in water of about 10% at normal temperature, which is about 50 times of the solubility of perfluorooctanoic acid (PFOA) in water. Therefore, the adsorption rate of general active carbon, for example, general-purpose active carbon for waste water which was conventionally used is 5% or less at normal temperature and pH 7.

## O=C(O)C(F)(OC(F)(F)C(F)(OC(F)(F)F)C(F)(F)F)C(F)(F)F (stereo not drawn) [2,3,3,3-tetrafluoro-2-[1,1,2,3,3,3-hexafluoro-2-(trifluoromethoxy)propoxy]-propanoic acid]
[1]
  solubility in water: about 10%
[2]
  desorption compared with perfluorohexanoic acid: higher desorption
Solubility in water
  solubility in water relative to perfluorooctanoic acid (PFOA): about 50 times
